Test results reported in patent publication US20240139210A1, “TREATMENT OF NF-KB-MEDIATED DISEASE” (ReveraGen BioPharma, Inc., priority 2020, published 2024).

What was measured:
[1] = VBP15-002 multiple ascending dose trial, PK and safety; assay type: in vivo, human
Procedure: Vamorolone clinical studies have been conducted in adult male volunteers and boys with DMD, a disorder in which skeletal muscle is in a chronic inflammatory state. Two consecutive open-label dose-ranging studies in 48 DMD patients aged 4 to <7 years (corticosteroid-naïve) were conducted (Phase IIa, VBP15-002; Phase IIa, VBP15-003). Doses were tested over a 24-fold dose range (0.25, 0.75, 2.0, and 6.0 mg/kg/day), with 12 participants per group. The first multiple ascending dose (MAD) cohort trial-tested pharmacokinetics (PK) and safety for 2 weeks of drug dosing followed by a 2-week washout (VBP15-002). […] All DMD participants completed the MAD study and then continued on the same dose for a 24-week dose-finding (efficacy and safety) extension study (VBP15-003).
VBP15-002 (Phase IIa; two weeks on the drug, two weeks off drug) enrolled 48 corticosteroid-naïve participants with DMD, and all 48 participants completed the study and enrolled into VBP15-003 (Phase IIa extension; 24-week treatment). Forty-six of 48 participants completed the VBP15-003 study (2 participants withdrew from VBP15-003 for reasons unrelated to the study drug). In addition, all participants (46/46) opted to enroll in the 24-month long-term extension study, VBP15-LTE.

participants with DMD = assay: VBP15-003/VBP15-LTE open-label trials, motor outcomes over 18 months; assay type: in vivo, human; conditions: for TTCLIMB velocity, LS mean difference (SE), ANCOVA / TTSTAND velocity, LS mean difference (SE), ANCOVA / TTRW velocity, LS mean difference (SE), ANCOVA: vamorolone 18 months vs corticosteroid-naïve DNHS
Description: Assessments of efficacy were motor outcomes (primary outcome: time to stand from supine [TTSTAND]; secondary outcomes: time to run/walk 10 meters [TTRW], time to climb four stairs [TTCLIMB], distance covered in 6-minute walk test [6MWT], and the North Star Ambulatory Assessment [NSAA]). 6MWT and NSAA were not assessed in most CINRG DNHS participants and were not compared to vamorolone-treated participants. According to standard operating procedures, clinical evaluators were trained to harmonize the CINRG vamorolone, CINRG DNHS, and CINRG prednisone studies. Reliability of these outcomes (percent coefficient of variation) has been reported for the VBP15-002/VBP15-003 studies. Assessments were done at baseline (VBP15-002 entry), 24 weeks (VBP15-003 last visit), and 18 months (VBP15-LTE midpoint assessment at 12 months).
Only participants completing VBP15-002 and VBP15-003 were eligible to enroll in VBP15-LTE. Participants received vamorolone at 1 of 4 dose levels (0.25, 0.75, 2.0, or 6.0 mg/kg/day) and at the same dose level in both the 4-week VBP15-002 trial and the 24-week VBP15-003 trial. If participants, their families, and their physicians wished to continue vamorolone treatment upon exiting the VBP15-003 trial, they were offered participation in the 24-month long-term extension (VBP15-LTE). The last visit of the VBP15-003 trial was commensurate with the first visit of the VBP15-LTE trial. In all studies, study medication was provided as 4% flavored liquid suspension and was dosed according to body weight and given once daily in the morning with food.
Vamorolone-treated participants were initially enrolled into VBP15-002 and VBP15-003 in 4 dose groups (0.25, 0.75, 2.0, and 6.0 mg/kg/day; groups A-D). Upon entering VBP15-LTE, vamorolone group A participants had 2 or 3 sequential dose escalations and were treated with 2.0 or 6.0 mg/kg/day for the last 3-9 months of the 18 months; group B participants had 1 or 2 dose escalations and were treated with 2.0 or 6.0 mg/kg/day for the last 9-11 months. Groups C and D were treated for 18 months at 2.0 or 6.0 mg/kg/day (S1 Fig).
The current study is the first to evaluate the longer-term tolerability, efficacy, and safety of vamorolone in DMD. […] Given the variable timing of dose escalations, it was prespecified that initial analyses of drug-related efficacy and safety would be limited to those participants who had 18 months of treatment with 2.0 mg/kg/day vamorolone or more (dose group C+dose group D; n=23). Outcomes for these participants were compared to a group-matched cohort from the CINRG DNHS over 18 months (corticosteroid-naïve, n=19; corticosteroid-treated, n=68). Participants were matched for age and treatment period (±1 month), matching criteria were prespecified in the statistical analysis plan. Two independent statisticians carried out the matching.
Statistical analyses were done on paired longitudinal outcome data using an analysis of covariance (ANCOVA) approach with change from baseline (VBP15-002) to month 18 (midpoint of VBP15-LTE). Baseline response and age were included as covariates. For the vamorolone-treated participants, age was calculated as (date of informed consent minus birthdate)/365.25. For the DNHS participants, age was calculated as (date of baseline visit used minus birthdate)/365.25. The baseline visit for a DNHS participant was the first visit. […] Timed function tests were analyzed as velocity scores to limit the impact of participants who could not perform the test (velocity=0). Velocity measures are variance-stabilizing transformations, suppressing extreme raw outliers from raw values in seconds; these help with distributional assumptions of the statistical models/tests used. Raw data (seconds) are also reported. Velocity scores for TTSTAND (event/second), TTRW (meters/second), and TTCLIMB (event/second) were inputted as 0 at the first response missing due to inability to perform the test. All other data were observed values only, without imputation. […]

[2] = vamorolone 18 months vs corticosteroid-naïve participants

Compound: C[C@@H]1C[C@H]2[C@@H]3CCC4=CC(=O)C=C[C@]4(C)C3=CC[C@]2(C)[C@@]1(O)C(=O)CO [Vamorolone, 17α,21-dihydroxy-16α-methylpregna-1,4,9(11)-triene-3,20-dione]
- dose-limiting toxicities ([1]; 0.25-6.0 mg/kg/day, 2 weeks dosing): no dose-limiting toxicities
- drug accumulation ([1]; day 1 vs day 14): no drug accumulation
- half-life ([1]; male, human, in vivo, oral, DMD patients aged 4 to <7 years, 0.25-6.0 mg/kg/day, 2 weeks dosing): ~2 h
- TTCLIMB velocity, LS mean difference (SE), ANCOVA (participants with DMD): 0.059 (0.026) event/second
- TTSTAND velocity, LS mean difference (SE), ANCOVA (participants with DMD): 0.042 (0.024) event/second
- TTRW velocity, LS mean difference (SE), ANCOVA (participants with DMD; listed as Valmorolone): 0.286 (0.09) meters/second
- TTCLIMB velocity, LS mean difference (SE), ANCOVA (participants with DMD; listed as vamorolone): 0.059 event/second
- TTRW velocity, LS mean difference (SE), ANCOVA (participants with DMD; listed as vamorolone): 0.286 meters/second
- TTSTAND velocity, LS mean difference (SE), ANCOVA (participants with DMD; listed as vamorolone): 0.042 event/second
- TTCLIMB, LS mean difference, ANCOVA (participants with DMD; [2]): -0.34 s
- TTRW, LS mean difference, ANCOVA (participants with DMD; [2]): -0.84 s
- TTSTAND, LS mean difference, ANCOVA (participants with DMD; [2]): -1.15 s
